≈ marks a conversion by molar mass, not a printed value. Read-outs that look alike come from different tables or passages of the source.
Legend:
P. aeruginosa DSM1117 = assay: MIC, standard microdilution assay, growing P. aeruginosa; format: cell-based, Pseudomonas aeruginosa; conditions: Pseudomonas aeruginosa, DSM1117; P. aeruginosa; CA-MHB pH 7.4; read-out: MIC (μM) CA-MHB
Procedure: (§1) Minimal inhibitory concentrations (MICs) were determined using a standard microdilution assay protocol. CA-MHB medium buffered with 40 mM HEPES (pH 7.4) was used to determine the MICs for UPEC, P. aeruginosa, and S. aureus. […] MICs for UPEC were also determined in LPM buffered with 30 mM MES (pH 5.5). For S. flexneri, MICs were determined in tryptic soy broth (TSB). The assay was performed in triplicates.

S. aureus DSM2569 = assay: MIC, standard microdilution assay, growing S. aureus; format: cell-based, Staphylococcus aureus; conditions: Staphylococcus aureus, DSM2569; S. aureus; CA-MHB pH 7.4; read-out: MIC (μM) CA-MHB
Procedure: as §1

[1] = system: intracellular S. flexneri 5a M90T in TC7 cells; assay: microbe, parasite or virus in culture; format: cell-based, Shigella flexneri; conditions: for IC50: Shigella flexneri, TC7, 14 h; for Fluorescence intensity (RFU), Mean, 0.0625 x MIC / Fluorescence intensity (RFU), Mean, 0.125 x MIC / Fluorescence intensity (RFU), Mean, 0.25 x MIC / Fluorescence intensity (RFU), Mean, 0.5 x MIC / Fluorescence intensity (RFU), Mean, 2 x MIC / Fluorescence intensity (RFU), Mean, MIC: TC7 cells infected with GFP-expressing S. flexneri, 14 h treatment
Excerpt: Nonproliferating bacterial pathogens frequently inhabit intracellular environments, but establishing relevant infection models for high-throughput testing is challenging. Therefore, we firstly tested ability of the hit compounds to cross the eukaryotic cytoplasmic membrane barrier and inhibit growth of S. flexneri within the cytoplasm of the TC7 human colon adenocarcinoma cell line[59]. To this end, we developed a new, fluorescence-based method that enables real-time monitoring of growth of intracellular Shigella. We used S. flexneri 5a M90T strain producing the AfaE adhesin that enhances bacterial adhesion to epithelial cells and allows synchronization of invasion. The strain was further modified to constitutively express super-folder GFP (sfGFP), which enables monitoring bacterial growth by fluorescence measurement. The epithelial cells were grown to confluence and infected with bacteria at an MOI (multiplicity of infection) of 50. […] Following bacterial adhesion and invasion, the cells were incubated with varying concentrations of the hit compounds and intracellular bacterial growth was tracked by measuring green fluorescence.
The cells were split using trypsin, seeded in 96-well plates for infection, and grown to confluence, corresponding to approximately 40,000 cells per well.
A single colony of S. flexneri was inoculated into TSB supplemented with 50 μg/ml spectinomycin and incubated overnight at 37°C with agitation. The overnight culture was diluted 1:200 in fresh TSB, and the bacteria were grown at 37 °C until the OD600 reached 0.3–0.4, corresponding to approximately 2 × 10^7 CFU/ml. Bacteria were pelleted by centrifugation, washed twice with sterile PBS, and resuspended in infection solution (serum-free DMEM supplemented with 20 mM HEPES, pH 7.4). Just prior to infection, the medium was withdrawn, and the cells were washed twice with sterile PBS. The bacterial inoculum (MOI 50, 2 × 10^7 CFU/ml) was added to all wells except the no-infection control. The plates were incubated at room temperature for 15 min to allow bacterial adhesion, followed by a 1 h incubation at 37 °C with 5% CO2 to facilitate bacterial invasion.
Twofold serial dilutions of the drugs were prepared in infection solution containing 50 μg/ml gentamicin in a 96-well plate. After the invasion period, the bacterial inoculum was removed, and the serial dilutions of the drugs were added to the wells, except for the no-drug control. […] […] The experiments were performed in triplicates on separate days.
(§2) Statistical significance of the drug effects was assessed using a one-way ANOVA followed by Dunnett’s test, comparing each treatment to the drug-free control. Statistical significance of the differences in chemical characteristics between the hit compounds and the Prestwick library was assessed using a Mann–Whitney test. Statistical significance was set at P ≤ 0.05. A five-parameter logistic equation was used for asymmetric sigmoidal curve fitting and for EC50 and IC50 determination. The Venn diagram in Fig. 1F was prepared using BioVenn web application. Characteristics of the chemical and physical properties of Prestwick library compounds were obtained from Supplementary Table S1 from reference. Characteristics of the hit compounds not included in the Prestwick library were retrieved from the PubChem database.

[2] = system: non-growing S. aureus DSM2569; assay: Dose-dependent killing analysis (CFU spot-plating) of stationary-phase S. aureus;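 further: drug concentration in µM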; format: cell-based, Staphylococcus aureus; conditions: S. aureus, vs 9,097 before treatment
Procedure: To determine the spectrum of activity of the compounds that were effective against non-growing UPEC, we further assessed their efficacy against the well-characterized Gram-negative and Gram-positive reference strains P. aeruginosa DSM1117 and S. aureus DSM2569, respectively. The cultures were grown and treated for 24 h in 1:4 CA-MHB (pH 7.4). […].
For survival analysis, bacteria were cultivated as described for the dose–response dilution-regrowth assay. Assays with UPEC were conducted at the CBCS screening facility using 96-well plates with a 200 μl sample volume, and compounds were dispensed using the Echo® (Labcyte) system. P. aeruginosa and S. aureus samples were treated according to the protocol used for the dilution-regrowth experiments. Treated samples were serially diluted 10-fold in PBS, and 10 μl drops were spot-plated onto rectangular LB agar plates using either a Beckman NXP robot (for UPEC) or an Integra VIAFLO96 electronic pipette (for P. aeruginosa and S. aureus). The LB agar plates were incubated overnight at 37 °C and scanned. Colonies were counted at the spots of the lowest dilution where individual colonies could be accurately distinguished. Each colony was manually marked on a separate image layer using the GNU Image Manipulation Program, and counted using NIST’s Integrated Colony Enumerator (NICE 1.4) software. The experiments were performed in three biological replicates.

E. coli CFT073 (UPEC) = assay: MIC, standard microdilution assay, growing UPEC; format: cell-based, Escherichia coli; conditions: E. coli; for MIC (μM) CA-MHB +PAβN: CA-MHB with 10 μg/ml efflux pump inhibitor PaβN
Procedure: as §1

S. flexneri 5a M90T = assay: MIC in tryptic soy broth, S. flexneri; format: cell-based, Shigella flexneri; conditions: Shigella flexneri, 5AM90T, read-out: MIC (μM) TSB
Procedure: as §1

non-growing UPEC CFT073 = assay: Dilution-regrowth assay (screen, hit validation, dose-response) on stationary-phase UPEC; format: cell-based, Escherichia coli; conditions: at 0.5 µM
Procedure: The cultures were incubated for 24 h in non-baffled Erlenmeyer flasks at 37 °C with shaking at 200 rpm.
The high-throughput screening (HTS) procedure was based on the protocol by Hazan and colleagues[15] and conducted at the Chemical Biology Consortium Sweden (CBCS) screening facility. […] Each plate included eight wells with 200 nl of 10 mM gatifloxacin, finafloxacin, and kanamycin solutions, along with 8-wells containing 200 nl of DMSO as controls. After 24 h incubation,100 μl of the culture was dispensed into each well of the 384-well plates for screening at a final concentration of 20 μM. The plates were sealed with parafilm and incubated at 37 °C for 24 h in closed humidified boxes, with wet paper towels added to prevent evaporation. […] The plates were incubated at 37 °C for 6 h in humidified boxes, then OD600 was measured using a microplate reader.
For hit validation, bacteria were cultivated, and the dilution-regrowth assay was conducted following the same protocol used in the primary screen. Hit compounds were dispensed into 384-well plates using the Echo® (Labcyte) system, with 200, 100, or 50 nl of a 10 mM solution in DMSO added per well, yielding final screening concentrations of 20, 10, and 5 μM, respectively. OD600 values of regrowing samples were normalized to the mean OD600 of the drug-free control. The testing was conducted in two replicates.
For UPEC, dose–response analysis was conducted at the CBCS screening facility. Bacteria were cultivated, and the dilution-regrowth assay was performed according to the HTS protocol. Compounds were dispensed into 384-well plates using the Echo® (Labcyte) system, and regrowth was assessed by measuring OD600 after 6 h of incubation at 37 °C in humidified boxes. Three biological replicates were performed.
as §2

[3] = Escherichia coli, pH 7.4, 1:4 diluted CA-MHB, read-out: MIC (μM) 1:4 CA-MHB
[4] = Escherichia coli, pH 7.4, CA-MHB, read-out: MIC (μM) CA-MHB

CO[C@@H]1[C@@H](O[C@@H]2O[C@H](C)[C@@H](O[C@H]3C[C@@](C)(O)[C@@H](OC(=O)CC(C)C)[C@H](C)O3)[C@H](N(C)C)[C@H]2O)[C@@H](CC=O)C[C@@H](C)[C@@H](O)/C=C/C=C/C[C@@H](C)OC(=O)C[C@H]1OC(C)=O [Josamycin]
MIC (P. aeruginosa DSM1117): > 160 µM
MIC (S. aureus DSM2569): 2 µM (≈ 1.66 µg/mL)
MIC:IC50 ratio ([1]; S. flexneri MIC in TSB versus intracellular IC50): > 2
IC50 [1]: 34.3 µM
Fluorescence intensity (RFU), Mean, 0.0625 x MIC [1]: 8835.42 RFU
Fluorescence intensity (RFU), Mean, 0.125 x MIC [1]: 7817.11 RFU
Fluorescence intensity (RFU), Mean, 0.25 x MIC [1]: 5830.67 RFU
Fluorescence intensity (RFU), Mean, 0.5 x MIC [1]: 2645.69 RFU
Fluorescence intensity (RFU), Mean, 2 x MIC [1]: 1478.33 RFU
Fluorescence intensity (RFU), Mean, MIC [1]: 1710.25 RFU
average Δlog10(CFU/ml) (killing) ([2]; drug conc. 0.1): 0.030 log10(CFU/ml)
average Δlog10(CFU/ml) (killing) ([2]; drug conc. 0.5): 0.110 log10(CFU/ml)
average Δlog10(CFU/ml) (killing) ([2]; drug conc. 2.5): 0.195 log10(CFU/ml)
average Δlog10(CFU/ml) (killing) ([2]; drug conc. 10): 0.084 log10(CFU/ml)
MIC (μM) CA-MHB +PAβN (E. coli CFT073 (UPEC); pH 7.4): 40 µM (≈ 33.1 µg/mL)
MIC (E. coli CFT073 (UPEC); [3]): 80 µM (≈ 66.2 µg/mL)
MIC (E. coli CFT073 (UPEC); [4]): 80 µM (≈ 66.2 µg/mL)
MIC (S. flexneri 5a M90T): 128 µM (≈ 106 µg/mL)

CCC(=O)O[C@@H]1CC(=O)O[C@H](C)C/C=C/C=C/[C@H](O)[C@H](C)C[C@H](CC=O)[C@H](O[C@@H]2O[C@H](C)[C@@H](O[C@H]3C[C@@](C)(O)[C@@H](OC(=O)CC)[C@H](C)O3)[C@H](N(C)C)[C@H]2O)[C@H]1OC [Midecamycin]
MIC (P. aeruginosa DSM1117): > 160 µM
MIC (S. aureus DSM2569): 2 µM (≈ 1.63 µg/mL)
IC50 [1]: 91 µM
Fluorescence intensity (RFU), Mean, 0.0625 x MIC [1]: 9401.53 RFU
Fluorescence intensity (RFU), Mean, 0.125 x MIC [1]: 9631.81 RFU
Fluorescence intensity (RFU), Mean, 0.25 x MIC [1]: 8761.75 RFU
Fluorescence intensity (RFU), Mean, 0.5 x MIC [1]: 6972.36 RFU
Fluorescence intensity (RFU), Mean, 2 x MIC [1]: 1708.61 RFU
Fluorescence intensity (RFU), Mean, MIC [1]: 3717.14 RFU
UPEC regrowth delay (non-growing UPEC CFT073): effectively delays UPEC regrowth
MIC (μM) CA-MHB +PAβN (E. coli CFT073 (UPEC); pH 7.4): 160 µM (≈ 130 µg/mL)
MIC (E. coli CFT073 (UPEC); pH 7.4, CA-MHB, read-out: MIC (μM) CA-MHB): >160 µM
MIC (E. coli CFT073 (UPEC); Escherichia coli, LPM pH 5.5, read-out: MIC): 160 µM (≈ 130 µg/mL)
MIC (E. coli CFT073 (UPEC); [3]): 160 µM (≈ 130 µg/mL)
MIC (E. coli CFT073 (UPEC); [4]): > 160 µM
MIC (S. flexneri 5a M90T): 128 µM (≈ 104 µg/mL)

Reference: PMC11992225, “Antibacterial compounds against non-growing and intracellular bacteria” (npj Antimicrobials and Resistance, 2025)
